Results reported in US7335735B2, “Intracellular estradiol binding protein” (Cedars-Sinai Medical Center, priority 2003, dated 2008).
Entries after “also recorded” stand apart in the source; their conditions may differ.

What was measured:
glucocorticoid receptors = conditions: New World primate cells; cited from earlier work
[1] = test system: ERE-directed transactivation; assay: ERE-promoter-reporter luciferase assay, transient co-transfection; assay type: cell-based, Old World primate
hsp27 = assay: Western blot analysis of hsp27 expression in wild-type breast cells; assay type: cell-based, Old World primate; conditions: wild-type control cells, Western blot with anti-hsp27 antibody
ERE = assay: Electrophoretic mobility shift analysis (EMSA) with idealized ERE as probe; assay type: binding; conditions: postnuclear extracts from OWP-IEBP stable transfectant clone 1, recombinant ERα
Procedure: This is believed to be due, at least in part, to enhanced binding of estrogens. To determine whether IEBP also functions as a direct competitor for ERE-binding, the inventors carried out electrophoretic mobility shift analyses (EMSAs) using an idealized ERE as a probe with recombinant ERα and/or postnuclear extracts from OWP-IEBP stable transfectant clone 1 as binding proteins. […] To assess this possibility, coimmunoprecipitation was performed by using anti-ERα and anti-hsp27 antibodies. Antihuman ERα antibodies were used to immunoprecipitate […] proteins in postnuculear extracts of both wild-type and IEBP-stably-transfected cells. The immunoprecipitates were subjected to Western blot analysis by using hsp27 antibodies. Data confirmed association between ERα and hsp27. Similar results were also obtained following initial immunoprecipitation with hsp27, and subsequent ERα blotting.

[2] = test system: ERE-directed transactivation; assay: ERE luciferase reporter assay in cells stably transfected with IEBP; assay type: cell-based, Old World primate; conditions: stable transfectants compared with wild-type cells
Procedure: E2-responsive OWP breast cells from cell line 6299 were incubated with 5.0 ug pcDNA3.1/v5-His-TOPO IEBP plasmid in LIPOTAXI solution for 5 hours followed by the addition of equal volume of 20% FCS-supplemented medium. After incubation overnight, cells were split (1:10 ratio) and incubated with fresh medium containing 500 ug/ml of the geneticin-selective antibiotic G418 sulfate (Life Technology; Grand Island, N.Y.). This medium was replaced every 3-4 days, until stable colonies formed. Single colonies were picked, transferred into a new dish, and incubated with medium containing selection antibiotic G418 until confluence for further study.
Experiments were therefore carried out to clarify whether the overexpression of IEBP antagonized, facilitated, or did nothing to estrogen-induced transactivation. Estrogen-responsive Old World primate cells were transiently co-transfected with IEBP cDNA and an ERE-promoter-reporter construct. After transfection, ERE-directed luciferase activity was reduced 50% compared to vector alone-transfected Old World primate cells. […] Similar results were also obtained following stable transfection of IEBP into Old World primate cells. Increased expression of IEBP in these cells was confirmed by Western blot analyses using an anti-hsp27 antibody.

## FKBP51: heat-shock protein (hsp)90-associated FK 506-binding immunophilin
Glucocorticoid receptors
  inhibition of ligand binding to glucocorticoid receptors: 74%

## C[C@]12CC[C@@H]3c4ccc(O)cc4CC[C@H]3[C@@H]1CC[C@@H]2O [E2, 17β-estradiol]
[1]; transient transfectants, E2 pre-treatment in control cells
  effect on ERE-mediated transcription: stimulated ERE-mediated transcription
hsp27
  hsp27 expression: stimulated hsp27 expression in a dose-dependent fashion; also recorded: strongly increased hsp27 expression

B1: IEBP: novel hsp27-related intracellular estradiol binding protein from New World primate B95-8 cells, SEQ ID NO:1 (protein, listed as Homo sapiens)
chain: MTERHVPFSLLQSPSWDPFRDWYPHSHLFDQAFGMPRLPEEWSQWFGTSSWPGYVRPLPPTTVEGPAVAAPAYSRALNQQLSSGVSETADRWRVSLDVNHFAPEELTVKTKDGVVEITGKHEERQDEHGFISRCFTRKYSLPPGVDPTQVSPSLSPEGTLTVDAPMSKPATQSNEITIPVTFESRAQLGGPEAAKSDRSAAK
[1]; transient co-transfection of cDNA and ERE-promoter-reporter construct, compared to vector alone-transfected Old World primate cells
  reduction of ERE-directed luciferase activity: 50%
ERE
  binding to ERE and competition with ERα for ERE: neither bound to ERE nor competed with the ERα for binding to ERE
[2]
  decrease of ERE luciferase reporter activity: 2-3 fold
